The term IC50 denotes the concentration needed to halve the response being measured.

Data on 54 compounds can be found in US11225481B2 (Centre national de la recherche scientifique, priority 2015, dated 2022).

Where only a bound is given, the exact number is not on record here.

The test concerns the target T1, BRD4(BD1) (Homo sapiens, UniProt O60885).
T1 construct: a BRD4(BD1) synthetic gene that includes a TEV cleavage site was purchased from LifeTechnology; made in house
Kind of test: HTRF assay, disruption of bromodomain/histone peptide interaction. Type of test: binding. Particulars: HTRF; mean ± SD of three experiments; Table 2; read-out: IC50 μM, effect on BRD4(BD1) activity. The protocol:
HTRF assays were performed in white 384 Well Small Volume™ HiBase Polystyrene Microplates (Greiner) with a total working volume of 20 μL. Compounds were dispensed, with 200 nL per well (1% final DMSO), from a concentration stock of 1 mM in 100% DMSO and with serial DMSO dilutions, using a Mosquito Crystal pipetting robot platform (TTP labtech). The IC50 measurements were performed in triplicates (Table 2 and 3). All HTRF reagents were purchased from CisBio Bioassays and reconstituted according to the supplier protocols. For each assay 14.7 μL of mix 1 (protein+peptide) is added in the assay wells, containing previously dispensed inhibitors, according to the final concentration and buffer described in Table 4, using a Biomek NX MC pipetting robot (Beckman). Then, 5.1 μL of mix 2 (donnor+acceptor) is added. HTRF signals were measured, after a final incubation (overnight at room temperature), using a PHERAstar FS (BMG Labtech) with an excitation filter at 337 nm and fluorescence wavelength measurement at 620 and 665 nm, an integration delay of 60 μs and an integration time of 500 μs. Results were analyzed with a two-wavelengths signal ratio: [intensity (665 nm)/intensity (620 nm)]*10^4. Percentage of inhibition was calculated using the following equation: % inhibition=[(compound signal)−(min signal)]/[(max signal)−(min signal)]*100, where ‘max signal’ is the signal ratio with the compound vehicle alone (DMSO) and ‘min signal’ the signal ratio without peptide.
For Isothermal Titration Calorimetry (ITC) and crystallogenesis, BRD4(BD1) was produced and purified using a histidine tag affinity chromatography as described by Filipakopoulos et al.9 For these experiments, a pNIC28-BSA4 expression vector containing BRD4(BD1) and a Tobacco Etch Virus (TEV) protease cleavage site have kindly been provided by Stefan Knapp laboratory from the SGC at the University of Oxford. After size exclusion chromatography, the fractions presenting pure BRD4(BD1) after TEV cleavage of the histidine tag were pooled and concentrated to 25 mg/mL for crystallogenesis. For ITC assays, the protein was concentrated up to at 6 mg/mL and the DTT was removed using a buffer exchange column (PD10 from GE healthcare) equilibrated with 10 mM HEPES pH=7.5, 150 mM NaCl. For Homogeneous Time Resolved Fluorimetry (HTRF) experiments, a BRD4(BD1) synthetic gene that includes a TEV cleavage site was purchased from LifeTechnology in a pDONR transport vector before cloning into a pDESTTM15 expression vector for GST affinity purification. Protein production and purification was carried out using similar protocols and buffers as used for the His-BRD4(BD1) system. Purification was carried on GST affinity resin (Thermo Scientific) and reduced glutathione was used for protein release. GST-BRD4(BD1) was further purified by size exclusion chromatography on a Superdex 16/60 Hiload column (GE Healthcare) using 20 mM TRIS pH=8.0, 150 mM NaCl Buffer.
Take `Nc1nc2nc[nH]c2c(=O)[nH]1` [Compound 1a]: the half-maximal inhibitory concentration (IC50) is above 100 µM. The same measure for `Cn1cnc2nc(N)[nH]c(=O)c21` [Compound 1b]: above 100 µM; for `CCn1cnc2[nH]c(N)nc(=O)c21` [Compound 1c, 7-ethylguanine]: above 100 µM; for `Nc1nc2nc[nH]c2c(=S)[nH]1` [Compound 2a]: above 100 µM.

For the compound `O=c1[nH]c(=O)c2[nH]cnc2[nH]1` [Compound 2b, xanthine], the IC50 was above 100 µM. Take `Cn1cnc2[nH]c(=O)[nH]c(=O)c21` [Compound 2c]: the IC50 was above 100 µM. The same measure for `CCn1cnc2[nH]c(=O)[nH]c(=O)c21` [Compound 3a, 7-Ethylxanthine]: above 100 µM; for `CC(C)Cn1cnc2[nH]c(=O)[nH]c(=O)c21` [Compound 3b]: above 100 µM. For `CCn1cnc2[nH]c(NC(=O)OC(C)(C)C)nc(=O)c21` [Compound 3c], the concentration for half-maximal inhibition (IC50) is above 100 µM. Consider `O=c1[nH]c(=O)n(Cc2ccc(Cl)cc2)c2nc[nH]c12` [Compound 4a], for which the IC50 was above 100 µM. Regarding `CCn1cnc2c1c(=O)[nH]c(=O)n2C` [Compound 4c], the IC50 is above 100 µM. The same measure for `CCn1cnc2c1c(=O)[nH]c(=O)n2CC` [Compound 5a]: 70.3 µM; for `CCn1cnc2c1c(=O)[nH]c(=O)n2C(C)C` [Compound 5b]: 52.5 µM. The same measure for `CCn1cnc2c1c(=O)[nH]c(=O)n2CC(C)C` [Compound 5c]: above 100 µM.

As to `CCn1cnc2c1c(=O)[nH]c(=O)n2Cc1ccc(Br)cc1` [Compound 6c], the concentration for half-maximal inhibition (IC50) came to 2.6 µM.

For `CCn1cnc2c1c(=O)[nH]c(=O)n2Cc1ccc(C(C)(C)C)cc1` [Compound 7b], the 50% inhibitory concentration (IC50) was 2.6 µM. On to `CCCCn1c(NC(=O)OC(C)(C)C)nc(=O)c2c1ncn2CC` [Compound 7c], for which the IC50 was determined as 17.9 µM. The same measure for `CCn1cnc2c1c(=O)nc(NC(=O)OC(C)(C)C)n2Cc1ccc(Cl)cc1` [Compound 8a]: above 100 µM; for `CCn1cnc2c1c(=O)nc(NC(=O)OC(C)(C)C)n2C(=O)OC(C)(C)C` [Compound 8b]: above 100 µM. Take `CCCCn1c(N)nc(=O)c2c1ncn2CC` [Compound 8c]: the IC50 stood at 10.7 µM. The same measure for `CCn1cnc2c1c(=O)nc(N)n2Cc1ccc(Cl)cc1` [Compound 9a]: above 100 µM. Next, `Cn1c(-c2ccc(Cl)cc2)nc2c1c(=O)[nH]c(=O)n2Cc1ccccc1` [Compound 10c]: above 100 µM. `O=c1[nH]c(=O)c2[nH]c(Br)nc2[nH]1` [Compound 11b]: the half-maximal inhibitory concentration (IC50) was above 100 µM. Regarding `O=c1[nH]c(=O)n(Cc2ccc(Cl)cc2)c2nc(Br)[nH]c12` [Compound 11c], the IC50 was above 100 µM.

Regarding `CCn1c(Br)nc2[nH]c(=O)[nH]c(=O)c21` [Compound 12a], the IC50 was above 100 µM.

For `CCn1c(Br)nc2c1c(=O)[nH]c(=O)n2Cc1ccc(Cl)cc1` [Compound 12b], the IC50 was below 100 µM.

In the case of `CCCCn1c(=O)[nH]c(=O)c2c1nc(Cl)n2CC` [Compound 12c, 3-Butyl-8-chloro-7-ethylxanthine], the half-maximal inhibitory concentration (IC50) is above 100 µM. On to `CCn1c(S)nc2c1c(=O)[nH]c(=O)n2C` [Compound 14c], for which the IC50 was below 100 µM. `CCCCn1c(=O)[nH]c(=O)c2c1nc(S)n2CC` [Compound 15a, 3-butyl-7-ethyl-8-mercaptoxanthine]: the IC50 amounted to 35.1 µM. Regarding `CCn1c(SC)nc2c1c(=O)[nH]c(=O)n2C` [Compound 15c], the IC50 is 100 µM. `O=C(O)CCSc1nc2c([nH]1)c(=O)[nH]c(=O)n2Cc1ccc(F)cc1` [Compound 16a]: the IC50 is above 100 µM.

As to `CCCCn1c(=O)[nH]c(=O)c2[nH]c(CO)nc21` [Compound 17a, 3-Butyl-8-hydroxymethylxanthine], the IC50 is above 100 µM.

`O=c1[nH]c(=O)n(Cc2ccc(Cl)cc2)c2nc(CO)[nH]c12` [Compound 17b]: the IC50 is above 100 µM. The same measure for `CCCCn1c(=O)[nH]c(=O)c2c1nc(CO)n2C` [Compound 17c]: above 100 µM; for `CCCCn1c(=O)[nH]c(=O)c2c1nc(CO)n2CC` [Compound 18a, 3-Butyl-7-ethyl-8-hydroxymethylxanthine]: above 100 µM; for `CCCCn1c(=O)[nH]c(=O)c2c1nc(CO)n2CCC` [Compound 18b]: above 100 µM.

As for `CCn1c(CO)nc2c1c(=O)[nH]c(=O)n2Cc1ccccc1` [Compound 18c], the IC50 was above 100 µM. On to `CCn1c(CO)nc2c1c(=O)[nH]c(=O)n2Cc1ccc(Cl)cc1` [Compound 19a], for which the IC50 stood at 93.3 µM. Consider `CCCCn1c(=O)[nH]c(=O)c2c1nc(CCl)n2CC` [Compound 19c, 3-butyl-8-chloromethyl-7-ethylxanthine], for which the IC50 is above 100 µM. Turning to `CCn1c(CSc2nc[nH]n2)nc2c1c(=O)[nH]c(=O)n2Cc1ccc(Cl)cc1` [Compound 21a], the IC50 is 45.6 µM. The same measure for `CCCCn1c(=O)[nH]c(=O)c2c1nc(CSc1n[nH]c(N)n1)n2CC` [Compound 21b, 8-(5-Amino-1H-[1,2,4]triazol-3-ylsulfanylmethyl)-3-butyl-7-ethyl-3,7-dihydro-purine-2,6-dione]: 89.1 µM; for `CCCCn1c(=O)[nH]c(=O)c2c1nc(CSc1nc3ccccc3[nH]1)n2CC` [Compound 22b]: above 100 µM. The same measure for `CCn1c(CSc2nc3ccccc3[nH]2)nc2c1c(=O)[nH]c(=O)n2Cc1ccc(Cl)cc1` [Compound 23a]: above 100 µM; for `CCCCn1c(=O)[nH]c(=O)c2c1nc(CSc1cc3ccccc3[nH]1)n2CC` [Compound 23b]: above 100 µM. Take `CCn1c(CSc2cc3ccccc3[nH]2)nc2c1c(=O)[nH]c(=O)n2Cc1ccc(Cl)cc1` [Compound 24a]: the IC50 was above 100 µM. As for `CCCCn1c(=O)[nH]c(=O)c2c1nc(CSc1nc3nc(C)cc(C)n3n1)n2CC` [Compound 24b], the IC50 is 69.6 µM.

Consider `CCCCn1c(=O)[nH]c(=O)c2c1nc(CSc1nc3nc(CC)cc(CC)n3n1)n2CC` [Compound 25b], for which the 50% inhibitory concentration (IC50) stood at 46.6 µM. `CCCCc1c(C)nc2nc(SCc3nc4c(c(=O)[nH]c(=O)n4Cc4ccc(Cl)cc4)n3C)nn2c1C` [Compound 27a]: the IC50 worked out at 100 µM. Next, `CCCCc1c(C)nc2nc(SCc3nc4c(c(=O)[nH]c(=O)n4Cc4ccc(Cl)cc4)n3CC(C)C)nn2c1C` [Compound 28a]: above 100 µM; `CCCCn1c(=O)[nH]c(=O)c2c1nc(Sc1nc3nc(C)cc(C)n3n1)n2CC` [Compound 28b, 3-Butyl-8-(5,7-dimethyl-[1,2,4]triazolo[1,5-a]pyrimidin-2-ylsulfanyl)-7-ethyl-3,7-dihydro-purine-2,6-dione]: above 100 µM; `CCn1c(Sc2nc3nc(C)cc(C)n3n2)nc2c1c(=O)[nH]c(=O)n2Cc1ccc(Cl)cc1` [Compound 29a]: above 100 µM.

As for `CCc1cc(CC)n2nc(Sc3nc4c(c(=O)[nH]c(=O)n4Cc4ccc(Cl)cc4)n3CC)nc2n1` [Compound 30a], the IC50 was determined as 18.3 µM. The same measure for `CCCCc1c(C)nc2nc(Sc3nc4c(c(=O)[nH]c(=O)n4Cc4ccc(Cl)cc4)n3CC)nn2c1C` [Compound 31a]: 46.8 µM; for `CCCCc1c(C)nc2nc(CSc3nc4c(c(=O)[nH]c(=O)n4Cc4ccc(Cl)cc4)n3CC)nn2c1C` [Compound 31b]: 59.6 µM.
